System: L929 cells
Assay: Neutral red cell viability assay of L929 cells treated with TNFα and/or bFGF
Type: cell-based, murine
Protocol: In panel A cells were treated with the indicated concentrations of TNFα for 15 hours and were assayed for uptake of neutral red. In panel B cells were untreated (solid bars), treated with 0.5 ng/ml bFGF (dotted bars) or 5.0 ng/ml bFGF (hatched bars) and the indicated concentrations of TNFα for 18 hours. Cell viability was assessed by neutral red assay.
In panel A serum starved L929 cells were untreated or treated for 1 hour at 37° C. with the MEK-1 inhibitor (PD) and then unstimulated or stimulated with bFGF. MAPK activity was measured. In panel B L929 cells were untreated or treated for 1 hour at 37° C. with PD and then were untreated or treated with TNFα alone or in combination with bFGF for 18 hours. Cell viability was assessed by neutral red assay.
Cell lines and culture. L929 cells (ATCC CCL1 were maintained in Dulbecco's modified Eagle's medium with 5% newborn calf serum and 5% bovine calf serum (BCS) supplemented with 100 ug/ml streptomycin and 100 U/ml penicillin. The cells were grown in 10 cm dishes at 37° C. in 7.5% CO2. Cells were made quiescent where indicated by incubation in Dulbecco's modified Eagle's medium and 0.1% bovine serum albumin for 24 h. Recombinant murine TNFα and recombinant human bFGF (147aa) were from R&D Systems, Minneapolis, Minn. Cells were pretreated where indicated with the MEK-1 inhibitor PD#098059 (Parke-Davis Pharmaceutical Corp. Ann Arbor, Mich.) for 1 h at 37° C. Cells were stimulated by incubation with the indicated cytokine or growth factor for various times at 37° C. Stimulation was stopped by rinsing the plates twice with ice cold phosphate buffered saline (PBS) and lysing the cells in the appropriate lysis buffer. Cells were scraped from the plates and nuclei were pelleted for 10 min at 14,000 RPM in a microcentrifuge. JNK assay. JNK activity was measured using a solid state kinase assay in which glutathione S-transferase-c-Jun (1-79) (GST-JUN) cound to glutathione-Sepharose 4B beads was used to affinity purify JNK and then JNK activity was measured in an in vitro kinase assay using the sepharose bound GST-Jun as a substrate (Hibi, M., et al. (1993) Genes & Development 7:2135-2148). Stimulated or unstimulated cells were lysed in 0.5% Nonidet P-40, 20 mM HEPES pH 7.2, 100 mM NaCl, 2 mM dithiothreitol, 1 mM EDTA, 1.0 mM phenylmethylsulfonylfluoride, 1 μg/ml aprotinin and the nuclei pelleted. Lysates were normalized for protein content. JNK was affinity purified from 50-100 μg of cell lysate by the addition of 10 ul of GST-Jun sepharose slurry (2 μg GST-Jun). Binding to GST-Jun efficiently isolates the two major forms of JNK (p45 and p55) and under the conditions used JNK isolation was linear for 10-250 μg of cell lysate. The lysates were rotated at 4° C. for 1-3 h. Beads were washed twice in lysis buffer and then twice in PAN (10 mM PIPES, pH 7.0, 100 mM NaCl, 21 μg/ml aprotinin). Kinase reactions were carried out at 30° C. for 15 min in 20 mM Hepes pH 7.2, 20 mM β-glycerophosphate, 10 mM p-nitrophenyl phosphate, 10 mM MgCl2, 1 mM dithiothreitol, 50 μm sodium vanadate, 10 μCi γ^32P-ATP 4300 Ci/mmole. The kinase reaction was linear from 0-30 min. MAPK Assay MAPK activity was measured exactly as described previously (Gardner, A. M., et al. (1994) Meth. Enzymol. 238:258-270) with the exception that MonoQ FPLC fractionation was replaced by step elution from a DEAE-Sephacel column using 0.5 M NaCl in loading buffer. The eluate was assayed in triplicate using the epidermal growth factor receptor 662-681 peptide (EGFR662-681) as a selective substrate for MAPK activity (Heasley, L. E., et al. (1994) American Journal of Physiology (Renal Fluid Electrolyte Physiol. 36) 267:F366-F373). […]

Substance: TNFα
- time required to induce a similar level of L929 cell death (1 ng/ml TNFα): 24 to 48 h
- L929 cells being apoptotic (10 ng/ml TNFα, 15 hr): greater than 40%

Substance: bFGF: recombinant human bFGF (147aa), basic fibroblast growth factor
- effect on TNFα-mediated cell death (L929 cells): effective at blocking
- cell number in the absence of TNFα (bFGF alone): did not measurably increase cell number

— patent US20080201790A1, “Method and product for regulating cell responsiveness to external signals” (priority 1993, published 2008)
